Test results reported in ChEMBL document CHEMBL1811840, “p-hydroxyacetophenone amides from Cystobacter ferrugineus, strain Cb G35” (J Nat Prod, 2011).
Activity calls are given as the source filed them. The rule behind the calls is not given here.

Columns and labels:
[1] = test system: Chlamydomonas; assay: Antimicrobial activity against Chlamydomonas sp. at 0.8 to 100 ug/mL by serial dilution method; type: functional
[2] = test system: Bracteacoccus; assay: Antimicrobial activity against Bracteacoccus sp. at 0.8 to 100 ug/mL by serial dilution method; type: functional
[3] = test system: Scenedesmus bajacalifornicus; assay: Antimicrobial activity against Scenedesmus bajacalifornicus at 0.8 to 100 ug/mL by serial dilution method; type: functional; settings: Tetradesmus bajacalifornicus
[4] = test system: Pseudococcomyxa simplex; assay: Antimicrobial activity against Pseudococcomyxa simplex at 0.8 to 100 ug/mL by serial dilution method; type: functional
[5] = test system: Botryococcus braunii; assay: Antimicrobial activity against Botryococcus braunii at 0.8 to 100 ug/mL by serial dilution method; type: functional
[6] = test system: Mucor hiemalis; assay: Antimicrobial activity against Mucor hiemalis at 100 ug/mL by serial dilution method; type: functional, organism-based
[7] = test system: Staphylococcus aureus; assay: Antimicrobial activity against Staphylococcus aureus at 100 ug/mL after 24 hrs by serial dilution method; type: functional, organism-based
[8] = test system: Nocardia; assay: Antimicrobial activity against Nocardia flava at 100 ug/mL after 24 hrs by serial dilution method; type: functional
[9] = test system: Micrococcus luteus; assay: Antimicrobial activity against Micrococcus luteus at 100 ug/mL after 24 hrs by serial dilution method; type: functional, organism-based
[10] = test system: Escherichia coli; assay: Antimicrobial activity against Escherichia coli at 100 ug/mL after 24 hrs by serial dilution method; type: functional, organism-based
[11] = test system: Chromobacterium violaceum; assay: Antimicrobial activity against Chromobacterium violaceum at 100 ug/mL after 24 hrs by serial dilution method; type: functional, organism-based
[12] = test system: Candida albicans; assay: Antimicrobial activity against Candida albicans at 100 ug/mL after 24 hrs by serial dilution method; type: functional, organism-based
[13] = test system: Rhodotorula glutinis; assay: Antimicrobial activity against Rhodotorula glutinis at 100 ug/mL after 24 hrs by serial dilution method; type: functional, organism-based
[14] = test system: Wickerhamomyces anomalus; assay: Antimicrobial activity against Pichia anomala at 100 ug/mL after 24 hrs by serial dilution method; type: functional, organism-based
[15] = test system: Schizosaccharomyces pombe; assay: Antimicrobial activity against Schizosaccharomyces pombe at 100 ug/mL after 24 hrs by serial dilution method; type: functional, organism-based
[16] = test system: U-937; assay: Cytotoxicity against human U937 cells up to 100 ug/mL by WST-1 assay; type: functional, cell-based
[17] = test system: Pseudococcomyxa simplex; assay: Antimicrobial activity against Pseudococcomyxa simplex at 100 ug/mL by serial dilution method; type: functional

Row | Structure (SMILES) | growth inhibition (GI) [1] | growth inhibition (GI) [2] | growth inhibition (GI) [3] | growth inhibition (GI) [4] | growth inhibition (GI) [5] | growth inhibition (GI) [6] | growth inhibition (GI) [7] | growth inhibition (GI) [8] | growth inhibition (GI) [9] | growth inhibition (GI) [10] | growth inhibition (GI) [11] | growth inhibition (GI) [12] | growth inhibition (GI) [13] | growth inhibition (GI) [14] | growth inhibition (GI) [15] | Activity [16] | growth inhibition (GI) [17]
1 | CCCCCC(=O)NCC(=O)c1ccc(O)cc1 | inactive | inactive | inactive | inactive | inactive | inactive | inactive | inactive | inactive | inactive | inactive | inactive | inactive | inactive | inactive | inactive | –
2 | CC(=O)NCC(=O)c1ccc(O)cc1 | inactive | inactive | inactive | inactive | inactive | inactive | inactive | inactive | inactive | inactive | inactive | inactive | inactive | inactive | inactive | inactive | –
3 | CC(C)CCC(=O)NCC(=O)c1ccc(O)cc1 | inactive | inactive | inactive | inactive | inactive | inactive | inactive | inactive | inactive | inactive | inactive | inactive | inactive | inactive | inactive | inactive | –
4 | CCCC(=O)NCC(=O)c1ccc(O)cc1 | inactive | inactive | inactive | inactive | inactive | inactive | inactive | inactive | inactive | inactive | inactive | inactive | inactive | inactive | inactive | inactive | –
5 | CC(C)CC(=O)N/C=C/c1ccc(O)cc1 | inactive | inactive | inactive | – | inactive | inactive | inactive | inactive | inactive | inactive | inactive | inactive | inactive | inactive | inactive | inactive | Active
6 | CC(C)CC(=O)NCC(=O)c1ccc(O)cc1 | inactive | inactive | inactive | inactive | inactive | inactive | inactive | inactive | inactive | inactive | inactive | inactive | inactive | inactive | inactive | inactive | –
